Reference: paper PMC9706920, “Aryloxypropanolamine targets amyloid aggregates and reverses Alzheimer-like phenotypes in Alzheimer mouse models” (Alzheimer's Research & Therapy, 2022)

What was measured:
APP/PS1 mice = assay: 6E10 immunohistochemical staining of amyloid plaques in APP/PS1 mice; assay type: in vivo, mouse; details: YIAD002-treated APP/PS1 mice vs vehicle
Procedure: To test whether YIAD002 could reduce amyloid plaques in another AD mouse model, APP/PS1 transgenic mice (n = 24) and wildtype mice (n = 5) were assessed at the age of 7.5 months. YIAD002 was dissolved in PBS (0.5% methylcellulose) at two different concentrations (10 and 30 mg/kg/day) and administrated daily to APP/PS1 mice (n = 8 for each group) via oral gavage for 8 weeks. As a control, vehicle solutions were orally administrated to littermate APP/PS1 mice (n = 8) and wildtype mice (n = 5).
Formalin-fixed APP/PS1 mice brains were infiltrated with paraffin using a tissue processor (LEICA ASP300S, Germany). Blocks of tissues were produced with a tissue embedding center and sectioned into thin slices (4 μm), which were mounted onto glass slides. To prepare for 6E10 staining, slides were deparaffinized, rehydrated, and blocked with 0.03% H2O2 to remove endogenous peroxidase. For antigen retrieval, slides were boiled in Tris/EDTA solution (pH 9.0) using a pressure cooker. Unspecific binding was blocked through incubation in 4% BSA at RT for 30 min. Slides were immunolabeled with anti-6E10 antibody (1:2000, Novus Biologicals NBP2-62566) at RT for 1 h and HRP-labeled secondary antibody (Dako K4003) for 30 min and subsequently stained with DAB (3,3′-Diaminobenzidine) and counterstained with Mayer’s hematoxylin. Stained slides were scanned using ZEISS Axio scan.Z1 microscope. Amyloid plaques were quantified using Image-J software (NIH).

[1] = Microsomal stability, human; assay type: in vitro ADME; details: 1 μM, 30 min, 37°C
Procedure: (§1) To evaluate the rate of drug metabolism, we tested YIAD002 stability in liver microsomes of human, rat, and mouse. Microsomal concentration was 0.5 mg/ml in 0.1 M phosphate buffer (pH 7.4). 1 μM of YIAD002 was added to microsome solutions and was prewarmed at 37°C for 5 min. NADPH-regenerating solution was added to microsomes and incubated at 37°C for 30 min. At the end of incubation, acetonitrile with chlorpropamide was added to stop reactions and microsomal solutions were centrifuged at 14,000 rpm at 4°C for 5 min. For LC-MS/MS analysis, supernatants were injected on a Kinetex C18 column (2.1 × 100 mm, 2.6 μm particle size, Phenomenex, USA). The composition of the mobile phase was 0.1% formic acid in water (A) and 0.1% formic acid in acetonitrile (B).

[2] = Microsomal stability, rat; assay type: in vitro ADME; details: 1 μM, 30 min, 37°C
Procedure: as §1

CYP 2C19 = molecular target: T1, CYP 2C19 (Homo sapiens, UniProt P33261); assay: CYP450 inhibition assay, 2C19; assay type: in vitro ADME; details: YIAD002 10 μM, human liver microsomes; weak or no inhibition; read-out: CYP 2C19 inhibition, IC50 (inhibition criteria)
T1 construct: contained human liver microsomes (0.25 mg/ml); from tissue; host or cells: human liver microsomes
T1 sequence (P33261 whole entry): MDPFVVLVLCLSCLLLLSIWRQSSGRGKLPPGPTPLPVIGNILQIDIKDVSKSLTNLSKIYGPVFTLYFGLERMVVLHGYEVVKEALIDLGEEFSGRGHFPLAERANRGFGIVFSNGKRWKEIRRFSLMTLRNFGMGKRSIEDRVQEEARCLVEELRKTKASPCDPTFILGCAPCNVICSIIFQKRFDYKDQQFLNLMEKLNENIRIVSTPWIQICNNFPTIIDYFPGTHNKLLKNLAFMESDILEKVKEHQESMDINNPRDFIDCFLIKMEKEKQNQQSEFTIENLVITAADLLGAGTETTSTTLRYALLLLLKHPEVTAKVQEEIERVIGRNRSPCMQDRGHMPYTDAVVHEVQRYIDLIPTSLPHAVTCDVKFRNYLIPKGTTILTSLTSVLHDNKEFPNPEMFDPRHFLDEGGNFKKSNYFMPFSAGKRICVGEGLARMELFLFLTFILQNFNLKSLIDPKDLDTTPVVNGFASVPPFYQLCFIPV
Procedure: (§2) Incubation mixtures for Cytochrome P450s (CYPs) inhibition assay contained human liver microsomes (0.25 mg/ml), 0.1 M phosphate buffer (pH 7.4), 10 μM of YIAD002, and an enzyme substrate cocktail (phenacetin 50 μM, diclofenac 10 μM, S-mephenytoin 100 μM, dextromethorphan 5 μM, and midazolam 2.5 μM). The mixture was pre-incubated at 37°C for 5 min and 1 mM NAPDH was added to initiate reactions. After 15 min of incubation, acetonitrile with terfenadine was added to stop reactions and microsomal solutions were centrifuged at 14,000 rpm at 4°C for 5 min. For LC-MS/MS analysis, supernatants were injected on a Kinetex C18 column (2.1 × 100 mm, 2.6 μm particle size, Phenomenex, USA). The composition of the mobile phase was 0.1% formic acid in water (A) and 0.1% formic acid in acetonitrile (B).

BBB-PAMPA = assay type: in vitro ADME; details: 50 μM
Procedure: Commercially available Double-Sink PAMPA (Pion® Double sink) assay was performed using a two compartment 96-well microtiter plate and protocols specified by the manufacturer. […] Stock solutions of controls and YIAD002 were dissolved in DMSO (10 mM) and subsequently diluted to 200-fold in pION buffer (pH 7.4) to 50 μM. The donor plate of the PAMPA sandwich was loaded with 50 μM solutions, and after wetting the artificial membrane with BBB lipid solution, the acceptor plate was loaded with acceptor sink buffer. Then, the acceptor plate was placed on the donor plate and incubated at 25°C for 4 h. Compound concentration in the reference, donor, and acceptor plates were measured on a UV plate.

CYP 2C9 = molecular target: T2, CYP 2C9 (Homo sapiens, UniProt P11712); assay: CYP450 inhibition assay, 2C9; assay type: in vitro ADME; details: YIAD002 10 μM, human liver microsomes; weak or no inhibition; read-out: CYP 2C9 inhibition, IC50 (inhibition criteria)
T2 construct: contained human liver microsomes (0.25 mg/ml); from tissue; host or cells: human liver microsomes
T2 sequence (P11712 whole entry): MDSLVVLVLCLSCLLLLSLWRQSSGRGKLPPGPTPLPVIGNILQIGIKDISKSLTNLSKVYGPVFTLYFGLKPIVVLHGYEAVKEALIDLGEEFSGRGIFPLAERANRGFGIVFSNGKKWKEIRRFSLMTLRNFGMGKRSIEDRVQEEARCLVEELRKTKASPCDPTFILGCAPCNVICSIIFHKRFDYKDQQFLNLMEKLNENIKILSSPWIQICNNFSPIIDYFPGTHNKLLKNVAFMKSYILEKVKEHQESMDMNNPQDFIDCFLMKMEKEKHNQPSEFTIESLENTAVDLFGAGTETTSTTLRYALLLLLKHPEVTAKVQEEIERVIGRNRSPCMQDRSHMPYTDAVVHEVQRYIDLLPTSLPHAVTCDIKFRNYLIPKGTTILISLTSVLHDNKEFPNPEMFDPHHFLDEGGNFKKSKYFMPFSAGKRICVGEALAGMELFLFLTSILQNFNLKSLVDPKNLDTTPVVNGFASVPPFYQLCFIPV
Procedure: as §2

SMILES: CCC(C)(C)c1ccc(OCC(O)CN2CCCC2)c(C(C)(C)CC)c1.Cl (centres unmarked) [YIAD002, 1-(3-(2,4-Di-tert-pentylphenoxy)-2-hydroxypropyl)pyrrolidin-1-ium chloride]
- Number of plaques, cortex (APP/PS1 mice): significantly reduced
- Plaque size, hippocampus (APP/PS1 mice): significantly reduced
- Size of plaques, cortex (APP/PS1 mice): significantly reduced
- Area of 6E10-stained plaques, whole brain (APP/PS1 mice; dose not given): reduced
- Number of 6E10-stained plaques, whole brain (APP/PS1 mice; dose not given): reduced
- Remaining compound in human microsomes [1]: 55.5%
- Remaining compound in rat microsomes [2]: 11.2%
- IC50 (CYP 2C19): > 10 µM
- BBB permeability class (BBB-PAMPA; classification ranges ref 25): high BBB permeability
- Papp at 4 h, 50 μM (BBB-PAMPA; PAMPA, pH 7.4, 25°C, 4 h, read-out: Effective permeability coefficient Pe): 36.8 ×10⁻⁶ cm/s
- IC50 (CYP 2C9): > 10 µM
